Converted amounts (≈) assume the structure as drawn.
How the values were obtained:
Type in all cases: functional
Campylobacter sp. [1] = assay: Antibacterial activity against erythromycin susceptible Campylobacter sp. assessed as resistance breakpoint by CLSI method
Campylobacter jejuni = assay: Antibacterial activity against Campylobacter jejuni assessed as resistant isolates by disk diffusion method
Campylobacter sp. [2] = assay: Antibacterial activity against erythromycin susceptible Campylobacter sp. by agar plate dilution method
Campylobacter sp. [3] = assay: Antibacterial activity against erythromycin resistant Campylobacter sp. assessed as resistance breakpoint by CLSI method
Campylobacter sp. [4] = assay: Antibacterial activity against erythromycin resistant Campylobacter sp. by agar plate dilution method
Campylobacter sp. [5] = assay: Antibacterial activity against Campylobacter sp. assessed as resistance breakpoint by CLSI method
Campylobacter coli = assay: Antibacterial activity against Campylobacter coli assessed as resistant isolates by disk diffusion method
Campylobacter sp. [6] = assay: Antibacterial activity against erythromycin resistant Campylobacter sp. after 48 hrs by Etest method
Campylobacter sp. [7] = assay: Antibacterial activity against erythromycin susceptible Campylobacter sp. after 48 hrs by Etest method
Campylobacter sp. [8] = assay: Antibacterial activity against Campylobacter sp. assessed as resistance breakpoint by EUCAST method
Campylobacter sp. [9] = assay: Antimicrobial activity against erythromycin resistant Campylobacter sp. assessed as clear zone of inhibition by disk diffusion method
Campylobacter sp. [10] = assay: Antimicrobial activity against erythromycin susceptible Campylobacter sp. assessed as clear zone of inhibition by disk diffusion method

| Molecule | Activity (Campylobacter sp. [1]) | Activity (Campylobacter jejuni) | MIC50 (Campylobacter sp. [2]) | MIC90 (Campylobacter sp. [2]) | Activity (Campylobacter sp. [3]) | MIC50 (Campylobacter sp. [4]) | MIC90 (Campylobacter sp. [4]) | Activity (Campylobacter sp. [5]) | Activity (Campylobacter coli) | MIC50 (Campylobacter sp. [6]) | MIC90 (Campylobacter sp. [6]) | MIC50 (Campylobacter sp. [7]) | MIC90 (Campylobacter sp. [7]) | Activity (Campylobacter sp. [8]) | inhibition zone (IZ) (Campylobacter sp. [9]) | inhibition zone (IZ) (Campylobacter sp. [10]) |
| --- | --- | --- | --- | --- | --- | --- | --- | --- | --- | --- | --- | --- | --- | --- | --- | --- |
| CC[C@H]1OC(=O)[C@H](C)[C@@H](O[C@H]2C[C@@](C)(OC)[C@@H](O)[C@H](C)O2)[C@H](C)[C@@H](O[C@@H]2O[C@H](C)C[C@H](N(C)C)[C@H]2O)[C@](C)(O)C[C@@H](C)CN(C)[C@H](C)[C@@H](O)[C@]1(C)O [AZITHROMYCIN] | 0.5% | 5% | 0.25 µg/mL (≈ 0.334 µM) | 0.5 µg/mL (≈ 0.668 µM) | 89.5% | > 128 µg/mL | > 128 µg/mL | 4 µg/mL | 38.9% |  |  |  |  |  |  |  |
| CC1(C)S[C@@H]2[C@H](NC(=O)[C@H](N)c3ccccc3)C(=O)N2[C@H]1C(=O)O [AMPICILLIN] | 16.6% | 18.2% | 0.5 µg/mL (≈ 1.43 µM) | 32 µg/mL (≈ 91.6 µM) | 36.8% | 8 µg/mL (≈ 22.9 µM) | 128 µg/mL (≈ 366 µM) | 32 µg/mL | 22.2% |  |  |  |  |  |  |  |
| N[C@@H]1CN(c2c(F)cc3c(=O)c(C(=O)O)cn([C@@H]4C[C@@H]4F)c3c2Cl)CC12CC2 [SITAFLOXACIN ANHYDROUS] |  |  | 0.5 µg/mL (≈ 1.22 µM) | 1 µg/mL (≈ 2.44 µM) |  | 0.125 µg/mL (≈ 0.305 µM) | 0.5 µg/mL (≈ 1.22 µM) |  |  |  |  |  |  |  |  |  |
| CC[C@H]1OC(=O)[C@H](C)[C@@H](O[C@H]2C[C@@](C)(OC)[C@@H](O)[C@H](C)O2)[C@H](C)[C@@H](O[C@@H]2O[C@H](C)C[C@H](N(C)C)[C@H]2O)[C@](C)(OC)C[C@@H](C)C(=O)[C@H](C)[C@@H](O)[C@]1(C)O [CLARITHROMYCIN] |  |  | 0.25 µg/mL (≈ 0.334 µM) | 128 µg/mL (≈ 171 µM) |  | > 128 µg/mL | > 128 µg/mL |  |  |  |  |  |  |  |  |  |
| CCn1cc(C(=O)O)c(=O)c2cc(F)c(N3CCNCC3)cc21 [NORFLOXACIN] | 39.6% | 40.9% | 8 µg/mL (≈ 25.1 µM) | 256 µg/mL (≈ 802 µM) | 94.7% | 64 µg/mL (≈ 200 µM) | > 64 µg/mL | 16 µg/mL | 83.3% |  |  |  |  |  |  |  |
| C[C@H]1COc2c(N3CCN(C)CC3)c(F)cc3c(=O)c(C(=O)O)cn1c23.C[C@H]1COc2c(N3CCN(C)CC3)c(F)cc3c(=O)c(C(=O)O)cn1c23.O [LEVOFLOXACIN] | 33.6% | 34.5% | 1 µg/mL | > 64 µg/mL | 78.9% | 8 µg/mL |  | 8 µg/mL | 72.2% |  |  |  |  |  |  |  |
| CN(C)c1cc(NC(=O)CNC(C)(C)C)c(O)c2c1C[C@H]1C[C@H]3[C@H](N(C)C)C(O)=C(C(N)=O)C(=O)[C@@]3(O)C(O)=C1C2=O [TIGECYCLINE] | 0% | 0% |  |  | 0% |  |  | 0.5 µg/mL | 0% | 0.008 µg/mL (≈ 0.0137 µM) | 0.023 µg/mL (≈ 0.0393 µM) | 0.008 µg/mL (≈ 0.0137 µM) | 0.032 µg/mL (≈ 0.0546 µM) | >0.5 µg/mL |  |  |
| O=C(N[C@H](CO)[C@H](O)c1ccc([N+](=O)[O-])cc1)C(Cl)Cl [CHLORAMPHENICOL] | 0.5% | 0.5% | 0.125 µg/mL (≈ 0.387 µM) | 8 µg/mL (≈ 24.8 µM) | 0% | 4 µg/mL (≈ 12.4 µM) | 16 µg/mL (≈ 49.5 µM) | 32 µg/mL | 0% |  |  |  |  |  |  |  |
| CN(C)[C@@H]1C(O)=C(C(N)=O)C(=O)[C@@]2(O)C(O)=C3C(=O)c4c(O)cccc4[C@@](C)(O)[C@H]3C[C@@H]12 [TETRACYCLINE] | 26.9% | 28.1% | 2 µg/mL (≈ 4.5 µM) | 8 µg/mL (≈ 18 µM) | 73.7% | 128 µg/mL (≈ 288 µM) | > 128 µg/mL | 16 µg/mL | 66.7% |  |  |  |  |  |  |  |
| CC[C@H]1OC(=O)[C@H](C)C(=O)[C@H](C)[C@@H](O[C@@H]2O[C@H](C)C[C@H](N(C)C)[C@H]2O)[C@](C)(OC)C[C@@H](C)C(=O)[C@H](C)[C@H]2N(CCCCn3cnc(-c4cccnc4)c3)C(=O)O[C@]12C [TELITHROMYCIN] |  |  | 0.064 µg/mL (≈ 0.0788 µM) | 0.25 µg/mL (≈ 0.308 µM) |  | 32 µg/mL (≈ 39.4 µM) | > 128 µg/mL |  |  |  |  |  |  |  |  |  |
| CC[C@H]1OC(=O)[C@H](C)[C@@H](O[C@H]2C[C@@](C)(OC)[C@@H](O)[C@H](C)O2)[C@H](C)[C@@H](O[C@@H]2O[C@H](C)C[C@H](N(C)C)[C@H]2O)[C@](C)(O)C[C@@H](C)C(=O)[C@H](C)[C@@H](O)[C@]1(C)O [ERYTHROMYCIN] | 0% | 4.5% | 2 µg/mL (≈ 2.73 µM) | 4 µg/mL (≈ 5.45 µM) | 100% | > 128 µg/mL | > 128 µg/mL | 16 µg/mL | 50% |  |  |  |  |  | <=23 mm | >23 mm |
| CC1COc2c(N3CCN(C)CC3)c(F)cc3c(=O)c(C(=O)O)cn1c23 (centres undefined) [OFLOXACIN] | 40.6% | 40.9% | 0.25 µg/mL (≈ 0.692 µM) | 32 µg/mL (≈ 88.6 µM) | 84.2% | 16 µg/mL (≈ 44.3 µM) | 64 µg/mL (≈ 177 µM) | 8 µg/mL | 83.3% |  |  |  |  |  |  |  |
| GENTAMICIN | 0.9% | 0.9% | 4 µg/mL | 64 µg/mL | 0% | 0.5 µg/mL | 0.5 µg/mL | 16 µg/mL | 0% |  |  |  |  |  |  |  |
| CCC[C@@H]1C[C@@H](C(=O)N[C@@H]([C@H]2O[C@H](SC)[C@H](O)[C@@H](O)[C@H]2O)[C@H](C)Cl)N(C)C1 [CLINDAMYCIN] | 1.4% | 5% | 2 µg/mL (≈ 4.71 µM) | 4 µg/mL (≈ 9.41 µM) | 89.5% | 64 µg/mL (≈ 151 µM) | 64 µg/mL (≈ 151 µM) | 8 µg/mL | 50% |  |  |  |  |  |  |  |
| CCn1cc(C(=O)O)c(=O)c2ccc(C)nc21 [NALIDIXIC ACID] | 40.1% | 41.4% | 2 µg/mL (≈ 8.61 µM) | 8 µg/mL (≈ 34.4 µM) | 94.7% | 128 µg/mL (≈ 551 µM) | 128 µg/mL (≈ 551 µM) | 32 µg/mL | 83.3% |  |  |  |  |  |  |  |
| C[C@@H](O)[C@H]1C(=O)N2C(C(=O)O)=C(SCCNC=N)C[C@H]12 [IMIPENEM ANHYDROUS] | 0% | 0% | 0.016 µg/mL (≈ 0.0534 µM) | 0.25 µg/mL (≈ 0.835 µM) | 0% | 0.25 µg/mL (≈ 0.835 µM) | 0.5 µg/mL (≈ 1.67 µM) | 16 µg/mL | 0% |  |  |  |  |  |  |  |
| C[C@@H](O)[C@H]1C(=O)N2C(C(=O)O)=C(S[C@@H]3CN[C@H](C(=O)N(C)C)C3)[C@H](C)[C@H]12 [MEROPENEM] | 0% | 0% | 4 µg/mL (≈ 10.4 µM) | 64 µg/mL (≈ 167 µM) | 0% | ≤ 0.03 µg/mL | 0.25 µg/mL (≈ 0.652 µM) | 16 µg/mL | 0% |  |  |  |  |  |  |  |
| COc1c(N2C[C@@H]3CCCN[C@@H]3C2)c(F)cc2c(=O)c(C(=O)O)cn(C3CC3)c12 [MOXIFLOXACIN] |  |  | ≤ 0.03 µg/mL | 0.125 µg/mL (≈ 0.311 µM) |  | 2 µg/mL (≈ 4.98 µM) | 16 µg/mL (≈ 39.9 µM) |  |  |  |  |  |  |  |  |  |
| O=C(O)c1cn(C2CC2)c2cc(N3CCNCC3)c(F)cc2c1=O [CIPROFLOXACIN] |  | 42.4% | 0.5 µg/mL (≈ 1.51 µM) | 1 µg/mL (≈ 3.02 µM) |  | 16 µg/mL (≈ 48.3 µM) | > 32 µg/mL |  |  |  |  |  |  |  |  |  |

Reference: ChEMBL document CHEMBL1255394, “Antimicrobial susceptibilities of multidrug-resistant Campylobacter jejuni and C. coli strains: in vitro activities of 20 antimicrobial agents” (2010)
